Like-named read-outs stand apart in the source and are kept apart here. Blank lines part the entries; values can stand above or below the molecule they belong to.
Legend:
[1] = target: T1, Human Arginase 1 (Homo sapiens, UniProt P05089); assay: Human Arginase 1 enzyme inhibition (thioarginine/DTNB absorbance at 412 nm); assay type: biochemical; details: recombinant enzyme from E. coli, 5 nM; 30 min pre-incubation, 60 min reaction
T1 construct: made in house; host or cells: E. coli
T1 sequence (P05089 1-322): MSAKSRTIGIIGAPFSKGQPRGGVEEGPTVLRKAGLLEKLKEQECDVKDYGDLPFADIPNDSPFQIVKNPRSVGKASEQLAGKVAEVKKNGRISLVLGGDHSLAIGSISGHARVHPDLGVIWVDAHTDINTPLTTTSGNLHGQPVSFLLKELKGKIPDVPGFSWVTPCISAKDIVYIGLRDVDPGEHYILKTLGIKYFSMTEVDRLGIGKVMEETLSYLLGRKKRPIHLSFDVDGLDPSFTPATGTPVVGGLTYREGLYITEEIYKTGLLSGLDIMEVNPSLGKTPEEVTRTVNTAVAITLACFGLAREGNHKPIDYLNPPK
Text: (§1) The inhibitory effects of Examples 1 to 12 on the activity of Human Arginase 1 and Arginase 2 activity were quantified by measuring the formation of the thiol group from thioarginine using recombinant Arginase 1 or Arginase 2 produced from E. coli. The thiol group was detected with Ellman's reagent, 5,5′-dithiobis(2-nitrobenzoic acid) (DTNB). DTNB reacts with the thiol to give the mixed disulfide and 2-nitro-5-thiobenzoic acid (TNB) which is quantified by the absorbance of the anion (TNB^2−) at 412 nm.
(§2) The assays were run in clear 384 well plates (Greiner cat no: 781101). Various concentrations of Examples 1 to 12 in 300 nL DMSO were dispensed to assay plates using an Echo acoustic dispenser immediately followed by plate sealing and centrifugation. Two pre-mixes were prepared from reagents thawed immediately before addition to assay plates. Pre-mix one comprised human Arginase 1 or human Arginase 2, at a final concentration of 5 nM and 0.5 mM DTNB in assay buffer, 45 mM HEPES pH7.5, brij 35, 0.045% (w/v) and 100 μM MnCl2. Pre-mix two comprised freshly thawed 0.5 mM thioarginine in assay buffer. Fifteen microlitres of pre-mix one was dispensed to assay plates containing Examples 1 to 12, centrifuged and incubated for 30 minutes at room temperature prior to adding fifteen microlitres of pre-mix two.
(§3) Assay plates were centrifuged prior to reading absorbance at 412 nm in a Pherastar multi-mode plate reader to collect data at time point 0 (T0). The plates were incubated at room temperature for 60 min prior to reading again to collect data at time point 1 (T1). Data is derived by subtracting the A412 signal measured at T0 (time point 0) from that measured at T1 (time point 1). The data was transformed to % effect using the equation: Compound % effect=100*[(X−min)/(max−min)], where X represents the normalized value for the compound based on the Min (vehicle) and Max (reference compound) inhibition control.
(§4) The concentration of Examples 1 to 12 that inhibited the activity by 50% (i.e. the IC50) was calculated by plotting the % effect versus test compound concentration and fitting the data using the Genedata Screener Smart fit algorithm.

[2] = target: T2, Human Arginase 2 (Homo sapiens, UniProt P78540); assay: Human Arginase 2 enzyme inhibition (thioarginine/DTNB absorbance at 412 nm); assay type: biochemical; details: recombinant enzyme from E. coli, 5 nM; 30 min pre-incubation, 60 min reaction
T2 construct: made in house; host or cells: E. coli
T2 sequence (P78540 23-354): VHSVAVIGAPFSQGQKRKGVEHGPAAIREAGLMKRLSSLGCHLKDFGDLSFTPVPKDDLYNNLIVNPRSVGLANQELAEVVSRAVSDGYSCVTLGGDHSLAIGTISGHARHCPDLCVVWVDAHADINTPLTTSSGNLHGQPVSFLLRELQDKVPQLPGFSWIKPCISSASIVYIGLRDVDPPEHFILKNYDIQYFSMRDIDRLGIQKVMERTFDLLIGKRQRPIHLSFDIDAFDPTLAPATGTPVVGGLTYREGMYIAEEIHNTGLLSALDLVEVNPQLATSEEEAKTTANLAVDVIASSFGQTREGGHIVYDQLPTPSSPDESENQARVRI
Text: as §1, §2, §3, §4

[3] = Bioavailability / pharmacokinetic study in male rats (IV and PO); assay type: in vivo; details: plasma; for bioavailability / AUC / Cmax / Tmax: male, rat, po, 5 mg/kg; for clearance / Vd: male rat; for Vd: read-out: Vdss
Description: Examples 2, 3, and 4 are prodrug forms of Example 1. […] Example 2 was formulated in 0.9% w/v saline pH 4 (adjusted with 1M HCl) for IV dosing. The formulation was dosed at 2 mg/kg by femoral catheter to two male rats each (170-250 g). Jugular vein catheter serial blood samples were taken at 0.033, 0.083, 0.167, 0.5, 1, 2, 4, 8, and 24 hrs post-dose. For PO dosing, Example 2 was formulated in deionized water pH 4 (adjusted with 1M HCl) and dosed at 5 mg/kg by oral gavage to two male rats each (170-250 g). Serial blood samples were taken by jugular vein catheter at 0.25, 0.5, 1, 1.5, 2, 3, 4, 8, and 24 hrs post dose. Plasma samples were generated from blood using low speed centrifugation. A single set of calibration standards containing Example 1 and Example 2 were prepared by spiking blank plasma. The samples and standards were extracted by precipitation with two volumes of acetonitrile followed by centrifugation. The results obtained were used to determine the Cl (mL/min/kg), Vdss (L/kg), Cmax (μM), AUC (μM h), tmax (h), and % F for both Example 1 and Example 2. Absolute bioavailability was determined by comparing the PO dose normalized AUC of Example 1 when dosed as Example 2, versus the dose normalized IV AUC of Example 1 when dosed as Example 1. Where appropriate, measured and not nominal doses were used to calculate bioavailability. In an analogous fashion, the same procedure was repeated for Examples 3 and 4.

[4] = PO 5 mg/kg of Example 2, Example 1 measured when dosed as pro-drug
[5] = PO dosing of Example 3, Example 1 measured when dosed as pro-drug
[6] = PO dosing of Example 4, Example 1 measured when dosed as pro-drug
[7] = PO 5 mg/kg vs IV 2 mg/kg, pro-drug measured when dosed as pro-drug
[8] = PO 5 mg/kg, pro-drug measured when dosed as pro-drug
[9] = IV 2 mg/kg, pro-drug measured when dosed as pro-drug

- IC50 [1]: 2200 nM
- IC50 [2]: 2540 nM
SMILES: N[C@@H]1CCN[C@](CCCCB(O)O)(C(=O)O)C1 (single isomer, unassigned) [Example 12]

- IC50 [1]: 20100 nM
- IC50 [2]: 53100 nM
SMILES: N[C@H]1CCN[C@](CCCCB(O)O)(C(=O)O)C1 (single isomer, unassigned; enantiomer 1) [Example 10, Anti-4-amino-2-(4-boronobutyl)piperidine-2-carboxylic acid enantiomer 1]

- IC50 [1]: 3150 nM
- IC50 [2]: 4370 nM
SMILES: N[C@H]1CCN[C@](CCCCB(O)O)(C(=O)O)C1 (single isomer, unassigned; enantiomer 2) [Example 11, anti-4-amino-2-(4-boronobutyl)piperidine-2-carboxylic acid enantiomer 2]

- bioavailability ([3]; Example 1 after PO Example 2 vs IV AUC of Example 1 dosed as Example 1, dose normalized): 82%
- bioavailability ([3]; Example 1 after PO Example 3 vs IV AUC of Example 1 dosed as Example 1, dose normalized): 78%
- bioavailability ([3]; Example 1 after PO Example 4 vs IV AUC of Example 1 dosed as Example 1, dose normalized): 20%
- AUC [3, 4]: 23.7 µM·h
- Cmax [3, 4]: 2500 nM
- Tmax [3, 4]: 2.3 h
- AUC [3, 5]: 25.7 µM·h
- Cmax [3, 5]: 2000 nM
- Tmax [3, 5]: 2.5 h
- AUC [3, 6]: 6.1 µM·h
- Cmax [3, 6]: 1000 nM
- Tmax [3, 6]: 1.5 h
- clearance ([3]; IV, Example 1 dosed as payload): 8.5 mL/min/kg
- Vd ([3]; IV, Example 1 dosed as payload): 0.23 L/kg
- IC50 [1]: 3 nM
- IC50 [2]: 4 nM
SMILES: N[C@H]1CCN[C@@](CCCCB(O)O)(C(=O)O)C1 [Example 1, (2R,4S)-4-amino-2-(4-boronobutyl)piperidine-2-carboxylic acid]

- bioavailability [3, 7]: 2%
- AUC [3, 8]: 0.29 µM·h
- Cmax [3, 8]: 350 nM
- Tmax [3, 8]: 0.25 h
- clearance [3, 9]: 16.3 mL/min/kg
- Vd [3, 9]: 0.25 L/kg
- IC50 [1]: 29 nM
- IC50 [2]: 24 nM
SMILES: CC(C)[C@H](N)C(=O)N[C@H]1CCN[C@@](CCCCB(O)O)(C(=O)O)C1 [Example 2, (2R,4S)-4-((S)-2-amino-3-methylbutanamido)-2-(4-boronobutyl)piperidine-2-carboxylic acid]

- bioavailability [3, 7]: 5.2%
- AUC [3, 8]: 1.1 µM·h
- Cmax [3, 8]: 640 nM
- Tmax [3, 8]: 0.75 h
- clearance [3, 9]: 13.5 mL/min/kg
- Vd [3, 9]: 0.22 L/kg
- IC50 [1]: 80 nM
- IC50 [2]: 59 nM
SMILES: NCC(=O)N[C@H]1CCN[C@@](CCCCB(O)O)(C(=O)O)C1 [Example 3, (2R,4S)-4-(2-aminoacetamido)-2-(4-boronobutyl)piperidine-2-carboxylic acid]

- clearance [3, 9]: 180 mL/min/kg
- IC50 [1]: 35 nM
- IC50 [2]: 27 nM
SMILES: C[C@H](N)C(=O)N[C@H]1CCN[C@@](CCCCB(O)O)(C(=O)O)C1 [Example 4, (2R,4S)-4-[[(2S)-2-aminopropanoyl]amino]-2-(4-boronobutyl)piperidine-2-carboxylic acid]

- IC50 [1]: 25 nM
- IC50 [2]: 21 nM
SMILES: CC[C@H](N)C(=O)N[C@H]1CCN[C@@](CCCCB(O)O)(C(=O)O)C1 [Example 5, (2R,4S)-4-[[(2S)-2-aminobutanoyl]amino]-2-(4-boronobutyl)piperidine-2-carboxylic acid]

- IC50 [1]: 18 nM
- IC50 [2]: 15 nM
SMILES: CC(C)C[C@H](N)C(=O)N[C@H]1CCN[C@@](CCCCB(O)O)(C(=O)O)C1 [Example 6, (2R,4S)-4-[[(2S)-2-amino-4-methyl-pentanoyl]amino]-2-(4-boronobutyl)piperidine-2-carboxylic acid]

- IC50 [1]: 23 nM
- IC50 [2]: 21 nM
SMILES: CC[C@H](C)[C@H](N)C(=O)N[C@H]1CCN[C@@](CCCCB(O)O)(C(=O)O)C1 [Example 7, (2R,4S)-4-[[(2S,3S)-2-amino-3-methyl-pentanoyl]amino]-2-(4-boronobutyl)piperidine-2-carboxylic acid]

- IC50 [1]: 31 nM
- IC50 [2]: 24 nM
SMILES: CC(C)(C)[C@H](N)C(=O)N[C@H]1CCN[C@@](CCCCB(O)O)(C(=O)O)C1 [Example 8, (2R,4S)-4-[[(2S)-2-amino-3,3-dimethyl-butanoyl]amino]-2-(4-boronobutyl)piperidine-2-carboxylic acid]

- IC50 [1]: 234 nM
- IC50 [2]: 180 nM
SMILES: CC(C)[C@@H](N)C(=O)N[C@H]1CCN[C@@](CCCCB(O)O)(C(=O)O)C1 [Example 9, (2R,4S)-4-[[(2R)-2-amino-3-methyl-butanoyl]amino]-2-(4-boronobutyl)piperidine-2-carboxylic acid]
